Results taken from patent publication US20040014726A1, “Method for the preparation of a pharmaceutical composition, and its use” (priority 2000, published 2004).

Experiments:
[1] = test system: bone metastases of human breast cancer cells in the mouse; assay: Metastasis model in mouse (human breast cancer cells, osteolytic bone lesions); type: in vivo; conditions: 50 mg/kg/day s.c. for 10 days
Experimental: The effect of the test compound has been tested in a metastasis model in the mouse. 14 days after inoculation with human breast cancer cells, when the radiologically detected osteolytic bone lesions were found, the animals were treated either with PBS (control) or the test compound (50 mg/kg/day, s.c.) for 10 days. At the end of the study, osteoclast number and bone area were measured histomorphometrically.

isolated rat osteoclasts = assay: Rat osteoclast culture on bovine bone slices; type: cell-based
Experimental: Osteoclasts can be isolated from long bones of several species and they are cultured on bone or dentine slices to study their resorption activity (Boyde et al. 1984, Chambers et al 1984). Mostly, either rat or rabbit osteoclasts are used. They are isolated from new-born animals and cultured for 1-2 days. The resorption activity is determined either by counting the number of resorption pits on bone/dentine slices or the total resorption area is measured using a phase contrast microscope and image analysis system. We are routinely using isolated rat osteoclasts and we culture them on bovine bone slices for two days, after which we fix the cells. Cells are stained with toluidine blue and counted under the microscope (Arnett and Dempster 1987, Lakkakorpi et al. 1989). Then the cells are removed by brushing them and the resorption pits are stained with WGA lectin, which binds to resorption lacuna in the bone slice. The number and area of pits are quantified (Selander et al. 1994).
(§1) The concentration range of the test compound in these assays was 10^−10-10^−5 M.

[2] = test system: mouse osteoprogenitor cells (preosteoblasts) supporting osteoclast formation; assay: Mouse spleen cell/osteoblast co-culture with pre-treated osteoprogenitor cells; type: cell-based; conditions: osteoprogenitor cells incubated with 10^-5 M for 24 h, then co-culture with spleen cells; data not shown
Text: Bone marrow stromal cells have long been known as a source of osteoprogenitor cells (Owen and Friedenstein 1988). […] These preosteoblasts can be further induced to form active osteoblasts by continuing the cultures for two more weeks in the presence of estrogen (17β-estradiol). During this culture period cells begin to express increasing levels of osteoblast markers, such as alkaline phosphatase, type I collagen and osteocalcin, and finally they are able to form bone. Bone formation is detected by bone nodule formation and calcium deposition in the cultures (Qu et al. 1998).
A co-culture system was developed, which contains mouse spleen cells and primary mouse osteoprogenitor cells. Osteoprogenitor cells were prepared from mouse marrow as described in section C.
When these two cell types were cultured in the presence of 1,25(OH)2D3, several osteoclasts were formed. Spleen cells alone with 1,25(OH)2D3 were not able to differentiate into osteoclasts. Mouse osteoprogenitor cells, which were able to support osteoclast formation, were incubated first with 10^−5 M of the said test compound for 24 h and then these cells were used in the co-culture with mouse spleen cells. […] This further supports the idea, that the test compound has direct inhibitory effect on osteoclast precursors.

ovariectomized rats = assay: Tests on ovariectomized rats (pQCT and bone strength); type: in vivo, rat; conditions: 12 weeks
Experimental: The activity of [[(3-hydroxy-2-pyridyl)amino]methylidene]bisphosphonic acid tetraethylester (TC) has been tested in ovariectornized rats. In the said tests, the compound to be tested was administered to six-month old rats. The control rats were sham-operated or overiectomized and given vehicle. The compound was given to ovariectomized rats orally 7 days a week for 12 weeks beginning immediately after the surgery. The doses were 10, 50 and 100 mg/kg/day. At the end of the study, the mineral density and the geometry of the bone was measured with pQCT (peripheral quantitative computed tomography). The strength of the bone was measured with electromechanical materials testing machine. The sites of measurement were the proximal end of the tibia (not strength), the lumbar vertebra, the femoral neck and the tibial mid-diaphysis. The parameters to be measured were the bone density of the trabecular or cortical bone, the cortical area and strength of the bone.

[3] = test system: osteoclast formation in mouse bone marrow culture; assay: Mouse bone marrow culture, osteoclast formation (TRAP-positive multinucleated cells); type: cell-based
Experimental: This culture system is the most used method to study osteoclast differentiation (Takahashi et al. 1988a). Mouse marrow cells can be induced to form active osteoclasts in 6-8 days in the presence of an osteotropic factor, such as 1,25(OH)2D3, parathyroid hormone, interleukin-1 or prostaglandin E2 (Takahashi et al. 1988b, Shinar et al. 1990, Collins and Chambers 1992, Jimi et al. 1999). Typically, 10^6 cells are cultured/ml of media for 6 days. Then, the cells are fixed with 3% paraformaldehyde in PBS and stained for osteoclast marker, such as tartrate-resistant acid phosphatase (TRAP). Sigma's immunohistochemical kit can be used. Multinucleated, TRAP-positive cells containing at least 3 nuclei are counted as osteoclasts (Hentunen et al. 1998).
as §1

[4] = test system: osteoclast formation in spleen cell culture; assay: Mouse spleen cell culture, osteoclast formation; type: cell-based
Text: as §1

CCOP(=O)(OCC)C(Nc1ncccc1O)P(=O)(OCC)OCC [test compound, [[(3-hydroxy-2-pyridinyl)amino]methylidene]bisphosphonic acid tetraethylester]
tumor induced decrease in bone area at the site of metastases [1]: inhibited | number of osteoclasts at the tumor-bone interface ([1]; compared to PBS control): decreased significantly | osteoclast-mediated bone resorption (isolated rat osteoclasts; data not shown): did not have any effect | osteoclast apoptosis (isolated rat osteoclasts; osteoclasts cultured for 1-2 days on bovine bone slices): did not have any effect | support of osteoclast formation by treated preosteoblasts [2]: supported osteoclast formation in the similar manner as non-treated preosteoblasts | change in the cortical area in the femoral neck caused by ovariectomy (ovariectomized rats; 50 mg/kg/day oral): inhibited the change | strength of the tibial mid-diaphysis (ovariectomized rats; 50 mg/kg/day oral): improved, although not to a significantly meaningful degree | cortical area in the tibial mid-diaphysis (ovariectomized rats; 50 mg/kg/day oral, compared to a normal rat and an ovariectomized rat): increase of the cortical area | change in the trabecular density in the femoral neck caused by ovariectomy (ovariectomized rats; 100 mg/kg/day oral): inhibited the change | area of the cortical bone in the lumbar vertebra, reduction by ovariectomy (ovariectomized rats; 50 and 100 mg/kg/day oral): inhibit these changes | density of the trabecular bone in the lumbar vertebra, reduction by ovariectomy (ovariectomized rats; 50 and 100 mg/kg/day oral): inhibit these changes | strength of the cortical bone in the lumbar vertebra, reduction by ovariectomy (ovariectomized rats; 50 and 100 mg/kg/day oral): inhibit these changes | thickness of the cortical bone (pQCT), reduction caused by ovariectomy (ovariectomized rats; oral, FIG. 5 lower row): can be inhibited | inhibition at 1 µM ([3]; Mus musculus, Osteoclast, at 10^-6 M): 60% | TRAP-positive MNC formation ([3]; at 10^-5 M): inhibit completely | toxic effect on other cells ([3]; at 10^-5 M): without having toxic effect on other cells | 1,25(OH)2D3- and PTH-induced osteoclast formation ([3]; bone marrow culture, concentration range 10^-10-10^-5 M): dose dependently inhibited | inhibition at 1 µM ([4]; Mus musculus, Osteoclast, at 10^-6 M concentration): 60% | TRAP-positive MNC formation ([4]; at 10^-5 M): completely blocked | osteoclast-like cell formation (TRAP-positive MNC or mononuclear cells) ([4]; at 10^-5 M, data not shown): totally blocked | inhibition of osteoclast formation ([4]; compound present on days 4-6): approximately 40% | inhibition of osteoclast formation ([4]; compound present only at days 1-3): more than 60% | osteoclast formation in spleen cell culture ([4]; concentration range 10^-10-10^-5 M): dose dependently inhibited
